Patent US12011449B2, “Therapeutic combinations comprising a c-RAF inhibitor” (Novartis AG, priority 2016, dated 2024)
Read-outs that look alike come from different tables or passages of the source. Values belong to the molecule of their own block, whether it stands above or below them.

Columns and labels:
A375 [1] = test: Proliferation, CellTiter-Glo 72 h, A375; format: cell-based; conditions: Homo sapiens, A-375, A375, Melanoma, BRAF V600E, RAS WT
Text: (§1) Note that activity is especially strong on cell lines that harbor at least one mutation in BRAF or RAS.

WM2664 = test: Proliferation, CellTiter-Glo 72 h, WM2664; format: cell-based; conditions: Homo sapiens, WM 266-4, WM2664, Melanoma, BRAF V600D, RAS WT
Text: as §1

IPC298 = test: Proliferation, CellTiter-Glo 72 h, IPC298; format: cell-based; conditions: Homo sapiens, IPC-298, IPC298, Melanoma, BRAF WT, NRAS Q61L
Text: as §1

HeyA8 = test: Proliferation, CellTiter-Glo 72 h, HeyA8; format: cell-based; conditions: Homo sapiens, HEY A8, HeyA8, Ovarian, BRAF G464E, KRAS G12D
Text: as §1

HCT116 = test: Proliferation, CellTiter-Glo 72 h, HCT116; format: cell-based; conditions: Homo sapiens, HCT-116, HCT116, Colorectal, BRAF WT, KRAS G13D
Text: as §1

Calu-6 = test: Proliferation, CellTiter-Glo 72 h, Calu-6; format: cell-based; conditions: Homo sapiens, Calu-6, NSCLC, BRAF WT, KRAS Q61K
Text: as §1

HuP-T4 = test: Proliferation, CellTiter-Glo 72 h, HuP-T4; format: cell-based; conditions: Homo sapiens, HuP-T4, Pancreas, BRAF WT, KRAS G12V
Text: as §1

PSN1 = test: Proliferation, CellTiter-Glo 72 h, PSN1; format: cell-based; conditions: Homo sapiens, PSN1, Pancreas, BRAF WT, KRAS G12R
Text: as §1

TCC-PAN2 = test: Proliferation, CellTiter-Glo 72 h, TCC-PAN2; format: cell-based; conditions: Homo sapiens, TCC-PAN2, Pancreas, BRAF WT, KRAS G12R
Text: as §1

NCI-H2073 = test: Proliferation, CellTiter-Glo 72 h, NCI-H2073; format: cell-based; conditions: Homo sapiens, NCI-H2073, NSCLC, BRAF WT, RAS WT
Text: as §1

HCC827 = test: Proliferation, CellTiter-Glo 72 h, HCC827; format: cell-based; conditions: Homo sapiens, HCC827, NSCLC, BRAF WT, RAS WT
Text: as §1

PC3 = test: Proliferation, CellTiter-Glo 72 h, PC3; format: cell-based; conditions: Homo sapiens, PC-3, PC3, Prostate, BRAF WT, RAS WT
Text: as §1

A375 [2] = test: Anti-proliferative effect in mechanistic A375 models, parental A375; format: cell-based; conditions: Homo sapiens, A-375, 72 hours, CellTiter-Glo
Experimental: (§2) To investigate the activity of Compound A in BRAF V600 mutant melanoma cells refractory to BRAF and/or MEK inhibitors, the anti-proliferative activity of Compound A in the mechanistic models derived from the BRAF V600 melanoma cell line A375 expressing mutations of MEK1/2, NRAS, or a splice variant of BRAF was evaluated.

A375/BRAFp61-V600E = test: Anti-proliferative effect in mechanistic A375 models, A375/BRAFp61-V600E; format: cell-based; conditions: Homo sapiens, A-375, doxycycline-induced, 72 hours
Experimental: as §2

A375/MEK1 Q56P = test: Anti-proliferative effect in mechanistic A375 models, A375/MEK1 Q56P; format: cell-based; conditions: Homo sapiens, A-375, doxycycline-induced, 72 hours
Experimental: as §2

A375/MEK1 C121S = test: Anti-proliferative effect in mechanistic A375 models, A375/MEK1 C121S; format: cell-based; conditions: Homo sapiens, A-375, doxycycline-induced, 72 hours
Experimental: as §2

A375/MEK1 E203K = test: Anti-proliferative effect in mechanistic A375 models, A375/MEK1 E203K; format: cell-based; conditions: Homo sapiens, A-375, doxycycline-induced, 72 hours
Experimental: as §2

A375/MEK2 Q60P = test: Anti-proliferative effect in mechanistic A375 models, A375/MEK2 Q60P; format: cell-based; conditions: Homo sapiens, A-375, doxycycline-induced, 72 hours
Experimental: as §2

A375/NRAS Q61K = test: Anti-proliferative effect in mechanistic A375 models, A375/NRAS Q61K; format: cell-based; conditions: Homo sapiens, A-375, doxycycline-induced, 72 hours
Experimental: as §2

[3] = test system: A375 derivatives expressing mutations of MEK1/2, NRAS, or a splice variant of BRAF; test: IC50 shift of resistant A375 models versus parental A375; format: cell-based, human
Experimental: as §2

[4] = Clinical PK of Compound A tablets, once daily, fasted subjects; format: in vivo, human; conditions: plasma; for AUC: day 1 of dosing, read-out: Mean plasma exposure over the dose interval of 24 hours (AUCtau); for Cmax: oral tablets, fasted subjects, read-out: Maximum plasma concentration (Cmax)
Experimental: Compound A was formulated with hydroxypropylmethylcellulose/Hypromellose, colloidal silicon dioxide, microcrystalline cellulose, polyvinylpyrrolidone/Povidone and magnesium stearate, and formed into tablets containing about 50 mg of Compound A. A number of tablets sufficient to provide a desired dosage were administered once daily to fasted subjects. Subjects were treated at doses of 100 mg once per day, or 200 mg once per day. Serial blood samples for PK assessments were collected up to 48 hours after the first dose of Compound A (Cycle 1 Day 1), and up to 24 hours after multiple doses (Cycle 1 Day 15). […] Mean plasma exposure over the dose interval of 24 hours (AUCtau) on day 1 of dosing was 5679 hr·ng/ml and 10019 hr·ng/ml after the 100 mg and 200 mg doses of Compound A, respectively. […] As this study is on-going, all data presented are considered preliminary.

[5] = test system: Calu-6 (KRAS Q61K), HCT116 (KRAS G13D); test: Cell-based proliferation, Calu-6 and HCT116; conditions: Homo sapiens
[6] = test system: Calu-6 (KRAS Q61K) xenograft; test: Calu-6 xenograft in nude mice; format: in vivo
Experimental: (§3) Female nude tumor bearing Calu6 mice, n=6 per group were randomized into treatment groups on day 17 following tumor implantation, when the average tumor volume was 180 mm3. Treatments with compound A were initiated on Day 17 and continued for 16 days. Dosing volume was 10 mL/kg. Tumor volumes were collected at the time of randomization and twice weekly thereafter for the study duration.
(§4) Regressions were also achieved in a second human NSCLC model, NCI-H358, at the 200 mg/kg QD dose in mice and in the human ovarian Hey-A8 xenograft at doses as low as 30 mg/kg QD in mice.

[7] = test system: Calu-6 (KRAS Q61K) xenograft; test: Calu-6 xenograft in nude rats; format: in vivo
[8] = test system: NCI-H358 (KRAS G12C) xenograft; test: NCI-H358 xenograft in mice; format: in vivo; conditions: 200 mg/kg QD
Experimental: (§5) SCID beige female tumor-bearing NCI-H358 mice, n=8 per group, were randomized into 3 groups 14 days post tumor cell inoculation with an average tumor volume range of 259.44-262.47 mm^3.
as §4

[9] = test system: human ovarian Hey-A8 xenograft; test: Hey-A8 ovarian xenograft in mice; format: in vivo; conditions: doses as low as 30 mg/kg QD
Experimental: as §4

KRASmt NSCLC models = test: Human KRAS-mutant xenograft models, overall statements; format: in vivo
Experimental: as §5, §3
Nude female mice tumor bearing NCI-H358, n=8 per group, were randomized into 2 groups with an average tumor volume range of 275.74 mm3.

[10] = test system: Calu-6 human NSCLC xenograft; test: Calu-6 NSCLC subcutaneous xenograft, single agents and combination; format: in vivo; conditions: for durability of tumor response: under treatment, 42 days post dosing
Experimental: Calu-6 NSCLC tumors were established in athymic female mice by subcutaneous injection of 10 million cells in 50% Matrigel™ into the flank of each mouse. […] A-B) Tumor volumes of treatment groups vs. days post randomization. C) Mean percent change in body weight from initial.
Combined treatment with Compound A and Compound B led to increased depth and durability of tumor response compared to either single agent in the human NSCLC xenograft Calu-6. […] Combining Compound A dosed at 30 mg/kg qd with Compound B dosed at either 50 mg/kg qd or 75 mg/kg q2d achieved 66% and 51% regressions, respectively, 17 days post dosing. In addition to the increased depth of response, the combination of Compound A and Compound B also led to an increased durability of response.

[11] = test system: DUSP6 (dual specificity phosphatase 6); test: DUSP6 pharmacodynamic biomarker in vivo; conditions: subject receiving a dosage associated with efficacious plasma levels
Text: In addition, an efficacious dosage can be determined by monitoring biomarkers indicative of MAP kinase pathway inhibition.

[12] = test system: non-small cell lung cancer (NSCLC); test: Phase I dose finding study, tumor response (RECIST); format: in vivo, human; conditions: one NSCLC subject, 1200 mg QD, preliminary
Experimental: The recommended starting dose and regimen of Compound A single agent in this study is 100 mg QD orally based on the preclinical safety, tolerability data, PK/PD data obtained in preclinical studies, as well as exploratory human efficacious dose range projection. […] For maximum flexibility of dosing, Compound A may be prepared as 50 mg and/or 100 mg tablets for oral administration. A proposed formulation for clinical use of Compound A includes Compound A combined with one or more excipients selected from hydroxypropylmethylcellulose (Hypromellose), colloidal silicon dioxide, microcrystalline cellulose, polyvinylpyrrolidone (Povidone), and magnesium stearate, and can be prepared in the form of tablets for oral administration, suitably containing 50 mg or 100 mg of Compound A. This was further confirmed by preliminary results obtained from the clinical trial.

Calu6 (KRAS^Q61K) = test: 3 day proliferation assay, Calu6; format: cell-based; conditions: Homo sapiens, Calu-6, 72 h, read-out: IC50 cell growth
HeyA8 (KRAS^G12D) = test: 3 day proliferation assay, HeyA8; format: cell-based; conditions: Homo sapiens, HEY A8, 72 h, read-out: IC50 cell growth
AsPC-1 (KRAS^G12D) = test: 3 day proliferation assay, AsPC-1; format: cell-based; conditions: Homo sapiens, ASPC1, 72 h, read-out: IC50 cell growth
PSN1 (KRAS^G12R) = test: 3 day proliferation assay, PSN1; format: cell-based; conditions: Homo sapiens, 72 h, read-out: IC50 cell growth

SMILES: Cc1ccc(NC(=O)c2ccnc(C(F)(F)F)c2)cc1-c1cc(OCCO)nc(N2CCOCC2)c1 [Compound A, N-(3-(2-(2-hydroxyethoxy)-6-morpholinopyridin-4-yl)-4-methylphenyl)-2-(trifluoromethyl)isonicotinamide]
IC50 (A375 [1]): 0.24 µM
IC50 (WM2664): 0.45 µM
IC50 (IPC298): 0.25 µM
IC50 (HeyA8): 0.21 µM
IC50 (HCT116): 0.47 µM
IC50 (Calu-6): 1.5 µM
IC50 (HuP-T4): 0.65 µM
IC50 (PSN1): 0.68 µM
IC50 (TCC-PAN2): 0.42 µM
IC50 (NCI-H2073): 18.2 µM
IC50 (HCC827): > 20 µM
IC50 (PC3): > 20 µM
IC50 (A375 [2]): 0.42 µM
IC50 (A375/BRAFp61-V600E): 0.72 µM
IC50 (A375/MEK1 Q56P): 1.15 µM
IC50 (A375/MEK1 C121S): 1.14 µM
IC50 (A375/MEK1 E203K): 1.05 µM
IC50 (A375/MEK2 Q60P): 1.12 µM
IC50 (A375/NRAS Q61K): 0.95 µM
increase in IC50 in resistant models [3]: 2-3 fold
AUC ([4]; human, oral, 100 mg): 5680 ng·h/mL
AUC ([4]; human, oral, 200 mg): 10000 ng·h/mL
half-life ([4]; human, oral, in patients): 23 to 24 h
Cmax ([4]; human, single 100 mg dose): 447 ng/mL
Cmax ([4]; human, single 200 mg dose): 889 ng/mL
accumulation ratio ([4]; once daily dosing of 100 mg): 1.8
IC50 [5]: 0.2 to 1.2 µM
anti-tumor effect ([6]; mice, 30 mg/kg QD): Tumor stasis
anti-tumor effect ([6]; nude mice, 100, 200, and 300 mg/kg once daily (QD)): regressions
anti-tumor effect ([7]; nude rats, 75 and 150 mg/kg QD): regressions
anti-tumor effect ([7]; rats, 35 mg/kg QD): Tumor stasis
anti-tumor effect [8]: Regressions
anti-tumor effect [9]: Regressions
single agent anti-tumor activity (KRASmt NSCLC models; H358, Calu6, H727 models, oral daily): showed single agent activity
tolerability (body weight loss) (KRASmt NSCLC models; in all cases (KRAS-mutant xenograft models)): well tolerated as judged by lack of significant body weight loss
T/C ([10]; Compound A 30 mg/kg qd, oral, 17 days post dosing): 26%
durability of tumor response [10]: progressed under treatment
predicted half-life (Predicted human PK): ~9 h
in vivo levels of DUSP6 [11]: drop
partial response according to RECIST [12]: −35%

SMILES: CNC[C@@H](NC(=O)c1ccc(-c2nc([C@H]3CC[C@H](O)[C@@H](F)C3)cnc2N)cc1F)c1cc(F)cc(Br)c1 [Compound B, 4-(3-amino-6-((1S,3S,4S)-3-fluoro-4-hydroxycyclohexyl)pyrazin-2-yl)-N-((S)-1-(3-bromo-5-fluorophenyl)-2-(methylamino)ethyl)-2-fluorobenzamide]
IC50 (Calu6 (KRAS^Q61K)): < 1 µM
IC50 (HeyA8 (KRAS^G12D)): < 1 µM
IC50 (AsPC-1 (KRAS^G12D)): < 1 µM
IC50 (PSN1 (KRAS^G12R)): < 1 µM
regressions ([10]; Compound B 50 mg/kg qd, oral, 17 days post dosing): 22%
T/C ([10]; Compound B 75 mg/kg q2d, oral, 17 days post dosing): 4%
durability of tumor response [10]: progressed under treatment

IC50 (A375/BRAFp61-V600E): 8.51 µM
IC50 (A375/MEK1 Q56P): 9.62 µM
IC50 (A375/MEK1 C121S): 8.7 µM
IC50 (A375/MEK1 E203K): 5.58 µM
IC50 (A375/MEK2 Q60P): 5.28 µM
IC50 (A375/NRAS Q61K): 9.38 µM
SMILES: CCCS(=O)(=O)Nc1ccc(F)c(C(=O)c2c[nH]c3ncc(-c4ccc(Cl)cc4)cc23)c1F [Vemurafenib]
IC50 (A375 [2]): 0.066 µM

IC50 (A375/BRAFp61-V600E): > 10 µM
IC50 (A375/MEK1 Q56P): 5.35 µM
IC50 (A375/MEK1 C121S): 2.33 µM
IC50 (A375/MEK1 E203K): 1.81 µM
IC50 (A375/MEK2 Q60P): 4.84 µM
IC50 (A375/NRAS Q61K): 5.5 µM
SMILES: Cn1cnc2c(F)c(Nc3ccc(Br)cc3Cl)c(C(=O)NOCCO)cc21 [Selumetinib]
IC50 (A375 [2]): 0.036 µM
